Assay results as given in ChEMBL document CHEMBL5236590, “Discovery of Novel N-(5-(Pyridin-3-yl)-1H-indazol-3-yl)benzamide Derivatives as Potent Cyclin-Dependent Kinase 7 Inhibitors for the Treatment of Autosomal Dominant Polycystic Kidney Disease” (J Med Chem, 2022).
Calls of active or inactive are those of the source. No cut-off for these calls is given here.

Assays:
[1] = biological target: Cyclin-dependent kinase 2 (Homo sapiens, UniProt P24941); assay: Inhibition of CDK2 (unknown origin) assessed as phosphorylation of ULight 4EBP1 peptide substrate measured after 2 hrs by FRET-based LANCE Ultra KinSelect assay
[2] = biological target: Cyclin-dependent kinase 7 (Homo sapiens, UniProt P50613); assay: Irreversible inhibition of CDK7 (unknown origin) assessed as activity measured after 3 hrs by jump dilution method
[3] = biological target: Cyclin-dependent kinase 5 (Homo sapiens, UniProt Q00535); assay: Inhibition of CDK5 (unknown origin)
[4] = biological target: Cyclin-dependent kinase 9 (Homo sapiens, UniProt P50750); assay: Inhibition of CDK9 (unknown origin)
[5] = biological target: Cyclin-dependent kinase 12 (Homo sapiens, UniProt Q9NYV4); assay: Inhibition of CDK12 (unknown origin)
[6] = biological target: Aurora kinase A (Homo sapiens) (UniProt O14965); assay: Inhibition of human partial length Aurora-A (E122/K401) expressed in mammalian system at 1 uM by KINOMEscan analysis relative to control
[7] = biological target: Serine/threonine-protein kinase 17A (Homo sapiens) (UniProt Q9UEE5); assay: Inhibition of human partial length wild type DRAK1 expressed in bacterial system at 1 uM by KINOMEscan analysis relative to control
[8] = biological target: Tyrosine-protein kinase JAK2 (Homo sapiens) (UniProt O60674); assay: Inhibition of human partial length wild type JAK2 (A829/G1132) expressed in mammalian system at 1 uM by KINOMEscan analysis relative to control
[9] = biological target: Vascular endothelial growth factor receptor 2 (Homo sapiens) (UniProt P35968); assay: Inhibition of human partial length wild type KDR (R787/P1253) expressed in mammalian system at 1 uM by KINOMEscan analysis relative to control
[10] = biological target: Tyrosine-protein kinase ABL1 (Homo sapiens) (UniProt P00519); assay: Inhibition of human partial length Ab1 (S229/K512) expressed in mammalian system at 1 uM by KINOMEscan analysis relative to control
[11] = biological target: Mitogen-activated protein kinase kinase kinase 5 (Homo sapiens) (UniProt Q99683); assay: Inhibition of human partial length wild type ASK1 expressed in bacterial system at 1 uM by KINOMEscan analysis relative to control
[12] = biological target: Calcium/calmodulin-dependent protein kinase type 1 (Homo sapiens) (UniProt Q14012); assay: Inhibition of human partial length wild type CaMKI expressed in bacterial system at 1 uM by KINOMEscan analysis relative to control
[13] = biological target: Casein kinase I isoform gamma-1 (Homo sapiens) (UniProt Q9HCP0); assay: Inhibition of human partial length wild type CKlgamma1 (T15/S353) expressed in bacterial system at 1 uM by KINOMEscan analysis relative to control
[14] = biological target: Ephrin type-B receptor 4 (Homo sapiens) (UniProt P54760); assay: Inhibition of human partial length wild type EphB4 (H585/G892) expressed in bacterial system at 1 uM by KINOMEscan analysis relative to control
[15] = biological target: Interleukin-1 receptor-associated kinase 4 (Homo sapiens) (UniProt Q9NWZ3); assay: Inhibition of human partial length wild type IRAK4 expressed in mammalian system at 1 uM by KINOMEscan analysis relative to control
[16] = biological target: Serine/threonine-protein kinase 10 (Homo sapiens) (UniProt O94804); assay: Inhibition of human partial length wild type LOK (E16/V314) expressed in bacterial system at 1 uM by KINOMEscan analysis relative to control
[17] = biological target: Mitogen-activated protein kinase kinase kinase 9 (Homo sapiens) (UniProt P80192); assay: Inhibition of human partial length wild type MLK1 expressed in bacterial system at 1 uM by KINOMEscan analysis relative to control
[18] = biological target: Serine/threonine-protein kinase 4 (Homo sapiens) (UniProt Q13043); assay: Inhibition of human full length wild type MST1 expressed in mammalian system at 1 uM by KINOMEscan analysis relative to control
[19] = biological target: Serine/threonine-protein kinase mTOR (Homo sapiens) (UniProt P42345); assay: Inhibition of human partial length wild type mTOR (L1382/W2549) expressed in mammalian system at 1 uM by KINOMEscan analysis relative to control
Homo sapiens [20] = organism: Homo sapiens; assay: Inhibition of PIK3 (unknown origin) at 1 uM relative to control
[21] = biological target: MAP kinase-activated protein kinase 5 (Homo sapiens) (UniProt Q8IW41); assay: Inhibition of human partial length wild type PRAK (M1/D322) expressed in mammalian system at 1 uM by KINOMEscan analysis relative to control
Homo sapiens [22] = organism: Homo sapiens; assay: Inhibition of human partial length wild type PRAK (M1/R415) expressed in mammalian system at 1 uM by KINOMEscan analysis relative to control
[23] = biological target: PI3K p110 beta/p85 alpha (Homo sapiens) (UniProt P27986+P42338); assay: Inhibition of P13 kinase p110beta/p85alpha (unknown origin) at 1 uM relative to control; assay type: protein-complex assay
[24] = biological target: PI3-kinase p110-delta/p85-alpha (Homo sapiens) (UniProt P27986+O00329); assay: Inhibition of PI3 Kinase p110delta/p85alpha (unknown origin) at 1 uM relative to control; assay type: protein-complex assay
[25] = biological target: PI3-kinase p110-alpha/p85-alpha (Homo sapiens) (UniProt P27986+P42336); assay: Inhibition of PI3 kinase p110alpha/p85alpha (unknown origin) at 1 uM relative to control; assay type: protein-complex assay
[26] = Half life in ICR mouse at 5 mg/kg, iv single dose measured upto 24 hrs; assay type: ADME, organism-based; conditions: in vivo
[27] = Observed volume of distribution at steady state in ICR mouse at 5 mg/kg, iv single dose measured upto 24 hrs; assay type: ADME, organism-based; conditions: in vivo, read-out: Vdss
[28] = Efflux ratio of apparent permeability in human Caco-2 cells after 120 mins by LC-MS/MS analysis; assay type: ADME, cell-based
[29] = Tmax in ICR mouse at 5 mg/kg, sc single dose measured upto 24 hrs; assay type: ADME, organism-based; conditions: in vivo
MDCK = assay: Inhibition of cyst formation in in-vitro MDCK cyst model assessed as decrease in cyst diameter at 1 to 3 uM measured for 4 to […]; assay type: functional, cell-based; conditions: Canis lupus familiaris, dose 1-3 µM, time lower 4.0 hrs
Mus musculus [30] = assay: Reduction in kidney size in kidney-specific Pkd1 knockout ADPKD mouse model assessed as renal cystic index at 5 mg/kg by HE staining analysis (reference value: 23 +/- 1.3%); assay type: functional, organism-based
Mus musculus [31] = assay: Reduction in cyst formation in kidney-specific Pkd1 knockout ADPKD mouse model assessed as renal cystic index at 5 mg/kg by HE staining analysis; assay type: functional, organism-based
Mus musculus [32] = assay: Reduction in AMPD3 protein expression in kidney-specific Pkd1 knockout ADPKD mouse model assessed as protein expression in kidney at 5 mg/kg by Western blot analysis; assay type: functional, organism-based
Mus musculus [33] = assay: Reduction in AMPD3 protein expression in kidney-specific Pkd1 knockout ADPKD mouse model assessed as protein expression in cyst-lining epithelial cell at 5 mg/kg by Western blot analysis; assay type: functional, organism-based

Chain of Serine/threonine-protein kinase 4 (Homo sapiens) (Q13043 whole entry): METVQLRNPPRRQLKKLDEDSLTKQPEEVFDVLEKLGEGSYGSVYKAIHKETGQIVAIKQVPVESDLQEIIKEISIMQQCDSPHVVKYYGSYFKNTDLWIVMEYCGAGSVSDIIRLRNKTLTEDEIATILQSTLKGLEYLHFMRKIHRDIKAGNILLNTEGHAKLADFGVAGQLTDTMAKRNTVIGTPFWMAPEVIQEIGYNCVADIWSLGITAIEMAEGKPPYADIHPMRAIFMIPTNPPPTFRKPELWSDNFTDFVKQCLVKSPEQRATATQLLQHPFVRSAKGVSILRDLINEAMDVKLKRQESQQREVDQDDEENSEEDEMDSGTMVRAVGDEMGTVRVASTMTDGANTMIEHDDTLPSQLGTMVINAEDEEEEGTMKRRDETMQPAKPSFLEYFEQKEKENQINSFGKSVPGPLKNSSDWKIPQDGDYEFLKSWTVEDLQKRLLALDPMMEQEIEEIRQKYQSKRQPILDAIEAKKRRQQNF
Chain of Aurora kinase A (Homo sapiens) (O14965 whole entry): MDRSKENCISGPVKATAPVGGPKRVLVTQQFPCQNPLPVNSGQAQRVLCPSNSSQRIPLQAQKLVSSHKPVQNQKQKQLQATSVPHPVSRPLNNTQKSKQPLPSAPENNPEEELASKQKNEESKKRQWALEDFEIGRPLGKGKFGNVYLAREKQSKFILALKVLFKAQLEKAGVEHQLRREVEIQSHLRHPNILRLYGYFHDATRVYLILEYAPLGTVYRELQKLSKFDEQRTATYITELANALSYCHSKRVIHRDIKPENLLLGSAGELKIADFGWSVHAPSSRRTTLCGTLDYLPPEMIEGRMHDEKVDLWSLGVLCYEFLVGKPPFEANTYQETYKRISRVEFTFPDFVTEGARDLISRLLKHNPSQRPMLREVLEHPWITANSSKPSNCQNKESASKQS
Chain of Cyclin-dependent kinase 9 (P50750 whole entry): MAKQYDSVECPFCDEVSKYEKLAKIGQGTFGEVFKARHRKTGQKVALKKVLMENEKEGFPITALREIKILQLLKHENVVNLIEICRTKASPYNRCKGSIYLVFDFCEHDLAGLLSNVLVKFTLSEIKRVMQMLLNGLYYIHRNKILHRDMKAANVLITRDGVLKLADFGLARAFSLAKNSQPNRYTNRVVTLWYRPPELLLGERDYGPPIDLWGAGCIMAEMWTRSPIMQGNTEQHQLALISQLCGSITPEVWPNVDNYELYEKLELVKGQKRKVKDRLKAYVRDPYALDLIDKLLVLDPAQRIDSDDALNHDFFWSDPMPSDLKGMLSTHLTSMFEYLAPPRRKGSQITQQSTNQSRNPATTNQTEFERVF
Chain of Serine/threonine-protein kinase 10 (Homo sapiens) (O94804 whole entry, looked up): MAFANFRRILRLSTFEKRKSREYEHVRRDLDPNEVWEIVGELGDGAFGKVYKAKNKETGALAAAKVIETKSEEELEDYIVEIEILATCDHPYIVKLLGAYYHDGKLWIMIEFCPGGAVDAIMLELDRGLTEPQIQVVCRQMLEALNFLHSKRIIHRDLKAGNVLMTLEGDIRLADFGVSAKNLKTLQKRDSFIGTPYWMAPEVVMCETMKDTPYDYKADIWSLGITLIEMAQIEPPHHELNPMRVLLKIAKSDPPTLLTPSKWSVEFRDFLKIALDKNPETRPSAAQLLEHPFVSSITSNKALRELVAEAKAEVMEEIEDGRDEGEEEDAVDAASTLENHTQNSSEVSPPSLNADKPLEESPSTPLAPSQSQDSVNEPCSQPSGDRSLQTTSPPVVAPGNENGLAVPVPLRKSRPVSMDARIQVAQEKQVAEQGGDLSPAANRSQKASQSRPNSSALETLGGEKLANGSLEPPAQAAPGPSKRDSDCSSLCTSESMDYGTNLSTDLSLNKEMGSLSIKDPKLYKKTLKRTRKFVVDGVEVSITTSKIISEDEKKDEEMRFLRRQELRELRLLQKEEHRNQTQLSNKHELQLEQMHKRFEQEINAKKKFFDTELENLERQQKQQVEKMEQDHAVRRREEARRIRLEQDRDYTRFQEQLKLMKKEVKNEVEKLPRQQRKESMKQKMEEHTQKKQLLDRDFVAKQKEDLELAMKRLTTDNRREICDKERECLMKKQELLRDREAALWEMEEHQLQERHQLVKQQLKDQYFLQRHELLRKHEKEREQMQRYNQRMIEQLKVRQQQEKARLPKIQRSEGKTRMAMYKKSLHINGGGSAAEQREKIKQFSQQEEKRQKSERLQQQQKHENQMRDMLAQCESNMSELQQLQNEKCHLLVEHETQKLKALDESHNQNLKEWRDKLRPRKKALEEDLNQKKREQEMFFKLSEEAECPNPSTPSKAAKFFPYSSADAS
Chain of Calcium/calmodulin-dependent protein kinase type 1 (Homo sapiens) (Q14012 whole entry, looked up, canonical isoform): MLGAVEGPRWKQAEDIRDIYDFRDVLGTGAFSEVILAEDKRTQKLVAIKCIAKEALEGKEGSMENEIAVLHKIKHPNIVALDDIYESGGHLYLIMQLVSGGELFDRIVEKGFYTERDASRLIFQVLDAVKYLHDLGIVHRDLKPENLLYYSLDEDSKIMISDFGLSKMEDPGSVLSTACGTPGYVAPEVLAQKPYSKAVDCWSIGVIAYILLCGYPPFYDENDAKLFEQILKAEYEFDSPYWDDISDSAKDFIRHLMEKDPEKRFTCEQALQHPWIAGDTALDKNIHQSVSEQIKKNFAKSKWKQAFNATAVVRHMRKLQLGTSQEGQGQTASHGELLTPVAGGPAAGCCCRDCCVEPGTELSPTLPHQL
Chain of Vascular endothelial growth factor receptor 2 (Homo sapiens) (P35968 whole entry): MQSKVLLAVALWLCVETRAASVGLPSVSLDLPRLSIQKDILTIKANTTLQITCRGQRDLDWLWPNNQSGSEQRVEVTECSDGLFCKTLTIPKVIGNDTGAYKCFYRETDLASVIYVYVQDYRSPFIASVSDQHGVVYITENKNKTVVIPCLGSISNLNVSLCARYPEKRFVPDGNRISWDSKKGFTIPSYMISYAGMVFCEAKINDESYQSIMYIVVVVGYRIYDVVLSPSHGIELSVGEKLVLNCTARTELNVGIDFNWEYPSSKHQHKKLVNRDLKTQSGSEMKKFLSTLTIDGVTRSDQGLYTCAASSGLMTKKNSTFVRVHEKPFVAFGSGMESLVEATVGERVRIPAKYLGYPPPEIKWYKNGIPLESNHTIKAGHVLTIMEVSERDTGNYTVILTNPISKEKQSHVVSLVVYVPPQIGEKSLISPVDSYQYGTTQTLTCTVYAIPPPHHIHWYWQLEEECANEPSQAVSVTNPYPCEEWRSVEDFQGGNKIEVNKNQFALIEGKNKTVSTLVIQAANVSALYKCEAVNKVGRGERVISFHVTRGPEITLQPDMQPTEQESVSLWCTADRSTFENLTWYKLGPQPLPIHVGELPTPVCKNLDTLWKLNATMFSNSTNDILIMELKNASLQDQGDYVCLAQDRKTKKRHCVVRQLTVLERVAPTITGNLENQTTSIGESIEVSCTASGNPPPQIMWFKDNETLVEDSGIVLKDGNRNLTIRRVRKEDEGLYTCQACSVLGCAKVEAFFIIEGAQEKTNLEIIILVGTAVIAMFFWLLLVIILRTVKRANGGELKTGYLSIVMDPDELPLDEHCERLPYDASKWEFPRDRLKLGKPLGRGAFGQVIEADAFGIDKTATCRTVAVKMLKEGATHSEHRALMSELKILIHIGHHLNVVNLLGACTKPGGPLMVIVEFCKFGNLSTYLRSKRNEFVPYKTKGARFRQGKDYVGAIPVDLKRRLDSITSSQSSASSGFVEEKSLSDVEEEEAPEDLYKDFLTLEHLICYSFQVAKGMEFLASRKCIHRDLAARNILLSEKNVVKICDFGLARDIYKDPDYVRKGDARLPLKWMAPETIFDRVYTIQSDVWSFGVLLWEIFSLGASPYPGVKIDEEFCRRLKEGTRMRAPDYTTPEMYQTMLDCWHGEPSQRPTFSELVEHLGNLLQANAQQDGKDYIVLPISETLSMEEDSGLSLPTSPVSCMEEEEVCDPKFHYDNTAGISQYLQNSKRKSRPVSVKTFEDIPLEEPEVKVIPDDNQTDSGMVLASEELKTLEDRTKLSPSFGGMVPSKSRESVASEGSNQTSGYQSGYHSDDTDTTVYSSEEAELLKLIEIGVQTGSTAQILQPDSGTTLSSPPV
Chain of Mitogen-activated protein kinase kinase kinase 9 (Homo sapiens) (P80192 whole entry, looked up): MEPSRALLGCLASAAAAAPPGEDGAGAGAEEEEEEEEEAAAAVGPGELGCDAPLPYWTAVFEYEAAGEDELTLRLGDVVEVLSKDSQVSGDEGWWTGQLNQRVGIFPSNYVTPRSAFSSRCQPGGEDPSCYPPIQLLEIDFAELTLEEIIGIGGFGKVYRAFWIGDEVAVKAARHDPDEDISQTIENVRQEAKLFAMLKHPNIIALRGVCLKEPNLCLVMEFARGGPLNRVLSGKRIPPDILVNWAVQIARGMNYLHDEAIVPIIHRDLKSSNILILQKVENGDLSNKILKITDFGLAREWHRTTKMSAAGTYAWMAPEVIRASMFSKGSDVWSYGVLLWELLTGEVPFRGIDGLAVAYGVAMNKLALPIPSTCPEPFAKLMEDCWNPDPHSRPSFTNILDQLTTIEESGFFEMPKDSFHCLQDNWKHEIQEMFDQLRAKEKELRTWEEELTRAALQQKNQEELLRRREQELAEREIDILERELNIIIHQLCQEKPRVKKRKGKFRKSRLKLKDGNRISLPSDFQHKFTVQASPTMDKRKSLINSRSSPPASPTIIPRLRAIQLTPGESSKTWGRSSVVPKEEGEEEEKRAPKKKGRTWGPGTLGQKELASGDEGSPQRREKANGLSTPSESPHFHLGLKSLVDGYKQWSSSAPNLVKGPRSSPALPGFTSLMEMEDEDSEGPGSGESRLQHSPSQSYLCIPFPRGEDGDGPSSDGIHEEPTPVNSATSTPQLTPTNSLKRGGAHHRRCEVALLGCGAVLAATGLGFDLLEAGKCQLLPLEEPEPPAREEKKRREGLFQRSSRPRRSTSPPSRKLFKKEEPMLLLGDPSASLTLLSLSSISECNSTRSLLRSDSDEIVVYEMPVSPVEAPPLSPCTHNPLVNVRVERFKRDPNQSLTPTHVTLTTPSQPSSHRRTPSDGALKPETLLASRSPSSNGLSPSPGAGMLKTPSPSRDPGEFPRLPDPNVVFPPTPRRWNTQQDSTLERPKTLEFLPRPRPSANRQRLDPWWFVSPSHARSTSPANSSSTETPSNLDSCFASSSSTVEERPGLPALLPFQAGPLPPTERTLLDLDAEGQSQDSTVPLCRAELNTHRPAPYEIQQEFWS

With `C=CC(=O)Nc1ccc(C(=O)Nc2n[nH]c3ccc(-c4cncc(NC[C@@H](O)c5ccccc5)c4)cc23)cc1` as the molecule, how does the IC50 [1] read?
The IC50 was 0.823 µM.

And the inhibition [2]?
Its inhibition is “Active”.

What about the IC50 [3] of the same molecule?
The IC50 was greater than 10 µM.

What about the IC50 [4] of the same molecule?
Its IC50 is 0.526 µM.

And the IC50 [5]?
The IC50 was greater than 10 µM.

What about the inhibition [6] of the same molecule?
The inhibition was 68%.

And the inhibition [7]?
The inhibition was 66%.

And the inhibition [8]?
Its inhibition is 62%.

And the inhibition [9]?
Its inhibition is 63%.

And the inhibition [10]?
Its inhibition is less than 50%.

What about the inhibition [11] of the same molecule?
Its inhibition is less than 50%.

What about the inhibition [12] of the same molecule?
Its inhibition is less than 50%.

What about the inhibition [13] of the same molecule?
Its inhibition is less than 50%.

What about the inhibition [14] of the same molecule?
The inhibition was less than 50%.

And the inhibition [15]?
The inhibition was less than 50%.

What about the inhibition [16] of the same molecule?
Its inhibition is less than 50%.

What about the inhibition [17] of the same molecule?
The inhibition was less than 50%.

What about the inhibition [18] of the same molecule?
The inhibition was less than 50%.

What about the inhibition [19] of the same molecule?
The inhibition was less than 50%.

What about the inhibition (Homo sapiens [20]) of the same molecule?
Its inhibition is less than 50%.

What about the inhibition [21] of the same molecule?
Its inhibition is less than 50%.

What about the inhibition (Homo sapiens [22]) of the same molecule?
Its inhibition is less than 50%.

And the inhibition [23]?
The inhibition was less than 50%.

What about the inhibition [24] of the same molecule?
Its inhibition is less than 50%.

What about the inhibition [25] of the same molecule?
Its inhibition is less than 50%.

What about the half-life [26] of the same molecule?
Its half-life is 18 h.

What about the Vd [27] of the same molecule?
Its Vd is 1.28 L/kg.

And the efflux ratio at 2 h [28]?
The efflux ratio at 2 h was greater than 48.

What about the Tmax [29] of the same molecule?
Its Tmax is 1 h.

And the inhibition (MDCK)?
Its inhibition is “Dose-Dependent Effect”.

And the Activity (Mus musculus [30])?
Its Activity is “Active”.

What about the Activity (Mus musculus [31]) of the same molecule?
Its Activity is “Active”.

What about the inhibition (Mus musculus [32]) of the same molecule?
Its inhibition is “Active”.

What about the Activity (Mus musculus [33]) of the same molecule?
Its Activity is “Active”.
